Data on eleven molecules can be found in ChEMBL document CHEMBL1201862, “PubChem BioAssay data set” (2004).

Test systems include LOX IMVI; SNB-19; Hs-578T; BT-549; DU-145; KM12; UACC-62; SNB-75; K562; SK-MEL-2; HCC 2998; 786-0; RPMI-8226; NCI/ADR-RES; SF-539; SK-OV-3; UO-31; RXF 393; CAKI-1.
Test in all cases: NCI tumour cell line growth inhibition, 48 h

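Grown in 96-well plates, cells were treated for 48 hours with each compound at five concentrations. Insufficient inhibition: endpoint recorded as highest concentration tested. GI50: concentration for 50% inhibition of growth.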 Active and inactive are the calls of the source. No stated cut-off is given here; in the data, active = GI50 up to about 1.1 µM and inactive = higher.

With `O=S1(=O)Cc2ccc3c4c2-c2c(ccc5ccc(c-4c25)CS(=O)(=O)C3)C1`, the GI50 with LOX IMVI is 44.6 µM (inactive); in the assay with SNB-19, > 100 µM (inactive); in the assay with Hs-578T, > 100 µM (inactive); in the assay on BT-549, 91.8 µM (inactive); with DU-145 it was > 100 µM (inactive); in the assay on KM12, 41.9 µM (inactive). Moreover, the GI50 in the assay with UACC-62 is 87.1 µM (inactive); in the assay on SNB-75, 69.7 µM (inactive); with K562, 26.7 µM (inactive); with SK-MEL-2 it was > 100 µM (inactive); in the assay on HCC 2998, > 100 µM (inactive); in the assay with 786-0, 49.5 µM (inactive). The GI50 in the assay with RPMI-8226 is 20 µM (inactive); in the assay on NCI/ADR-RES, > 100 µM (inactive); in the assay with SF-539, 51.9 µM (inactive); in the assay on SK-OV-3, > 100 µM (inactive); in the assay with UO-31, 43.3 µM (inactive).

For the molecule `CCCNC(=O)c1cc(NC(=O)c2cc(NC(=O)/C=C/c3ccccc3)c(OC)c(OC)c2)c(OC)c(OC)c1`, the GI50 in the assay with LOX IMVI is 2.96 µM (inactive); with SNB-19, 5.87 µM (inactive); in the assay on Hs-578T it was 1.92 µM (inactive); with BT-549, 17.8 µM (inactive); with DU-145 it was 24.8 µM (inactive); in the assay on KM12, 8.28 µM (inactive). Also, the GI50 in the assay with UACC-62 is 0.148 µM (active); with SNB-75, 2.49 µM (inactive); in the assay with K562, > 100 µM (inactive); with SK-MEL-2 it was 7.83 µM (inactive); with 786-0, 3.61 µM (inactive); in the assay with RPMI-8226 it was 27 µM (inactive). Moreover, the GI50 in the assay on NCI/ADR-RES was 9.33 µM (inactive); in the assay on RXF 393, 2.42 µM (inactive); in the assay on SF-539, 6.14 µM (inactive); in the assay with SK-OV-3, 7.62 µM (inactive); with UO-31, 5.6 µM (inactive).

Regarding `O=C(O)c1ccccc1-c1ccccc1C(=O)c1ccccc1`, the GI50 in the assay on LOX IMVI, in the assay on CAKI-1, in the assay with SNB-19, in the assay on Hs-578T, in the assay with BT-549 and in the assay on DU-145 was > 100 µM (inactive) throughout. The GI50 with KM12, with UACC-62, in the assay on SNB-75, in the assay with K562, with SK-MEL-2 and in the assay with 786-0 was > 100 µM (inactive) in each case. Besides, the GI50 in the assay with RPMI-8226, in the assay on NCI/ADR-RES, in the assay with RXF 393, in the assay on SF-539, in the assay on SK-OV-3 and in the assay with UO-31 was > 100 µM (inactive) each time.

Turning to `Cc1cccc(Nc2cc(Cl)nc(SCC(=O)O)n2)c1C` [PIRINIXIC ACID], the GI50 in the assay on LOX IMVI, in the assay on CAKI-1, with SNB-19, in the assay with Hs-578T, in the assay with BT-549 and in the assay on DU-145 was > 100 µM (inactive) each time. Besides, the GI50 in the assay on KM12 is > 100 µM (inactive); in the assay with UACC-62, > 100 µM (inactive); in the assay with SNB-75, > 100 µM (inactive); in the assay on K562 it was 87.5 µM (inactive); in the assay on SK-MEL-2 it was > 100 µM (inactive); in the assay on 786-0, > 100 µM (inactive). Besides, the GI50 with RPMI-8226 was 97.7 µM (inactive); with NCI/ADR-RES it was > 100 µM (inactive); in the assay with RXF 393, > 100 µM (inactive); with SF-539, > 100 µM (inactive); in the assay on SK-OV-3 it was > 100 µM (inactive).

`CN(C)CCOc1ccc([N+](=O)[O-])c2cccnc12`: the GI50 in the assay on CAKI-1, in the assay on SNB-19, with Hs-578T, with BT-549, in the assay with DU-145 and with KM12 was > 100 µM (inactive) throughout. Besides, the GI50 in the assay on UACC-62 was > 100 µM (inactive); in the assay with SNB-75, 40.8 µM (inactive); in the assay with K562, 97.3 µM (inactive); in the assay with SK-MEL-2, > 100 µM (inactive); with HCC 2998, > 100 µM (inactive); in the assay with 786-0, > 100 µM (inactive). The GI50 in the assay with NCI/ADR-RES, in the assay with SF-539, with SK-OV-3 and in the assay on UO-31 was > 100 µM (inactive) throughout.

As for `CC(=O)NC1C(OC2C(CO)OC(OCC3OC(n4ccc(N)nc4=O)C(O)C3O)C(NC(C)=O)C2O)OC(CO)C(O)C1O` (centres undefined), the GI50 in the assay with LOX IMVI, in the assay with CAKI-1, in the assay with SNB-19, in the assay on Hs-578T, with BT-549 and with DU-145 was > 100 µM (inactive) throughout. For the same molecule, the GI50 in the assay with KM12, with UACC-62, with SNB-75, in the assay with K562, in the assay on SK-MEL-2 and in the assay with 786-0 was > 100 µM (inactive) each time. Moreover, the GI50 in the assay on RPMI-8226, in the assay on NCI/ADR-RES, in the assay with RXF 393, in the assay with SF-539, in the assay with SK-OV-3 and with UO-31 was > 100 µM (inactive) throughout.

`N#CC1(C#N)C(c2ccccc2)C=CC(c2ccc([N+](=O)[O-])cc2)C1(C#N)C#N` (centres undefined): the GI50 in the assay with LOX IMVI is 2.35 µM (inactive); with CAKI-1, 3.66 µM (inactive); with SNB-19 it was 15.1 µM (inactive); with Hs-578T it was 17.9 µM (inactive); with BT-549, 10.4 µM (inactive); in the assay with DU-145 it was 14.2 µM (inactive). Also, the GI50 in the assay on KM12 is 22.1 µM (inactive); in the assay with UACC-62, 12 µM (inactive); with SNB-75, 24.7 µM (inactive); in the assay with K562, 3.01 µM (inactive); with SK-MEL-2, 17.1 µM (inactive); with HCC 2998 it was 19.4 µM (inactive). Besides, the GI50 in the assay on 786-0 is 2.67 µM (inactive); with RPMI-8226, 2.91 µM (inactive); in the assay with NCI/ADR-RES, 8.38 µM (inactive); in the assay on SF-539, 2.81 µM (inactive); in the assay on SK-OV-3 it was 18.5 µM (inactive); in the assay on UO-31, 13.7 µM (inactive).

Regarding `CN(C)CCSc1cc(-c2ccccc2)c2ccccc2n1`, the GI50 in the assay on LOX IMVI was 10.4 µM (inactive); with CAKI-1 it was 16.3 µM (inactive); in the assay with SNB-19, 13.6 µM (inactive); in the assay with Hs-578T, 10.3 µM (inactive); in the assay with BT-549, 12.3 µM (inactive); in the assay with DU-145, 15.4 µM (inactive). Also, the GI50 in the assay with KM12 was 14.3 µM (inactive); with UACC-62, 2.59 µM (inactive); in the assay on SNB-75 it was 4.04 µM (inactive); in the assay on K562 it was 2.09 µM (inactive); with SK-MEL-2 it was 14.2 µM (inactive); with 786-0, 10.8 µM (inactive). For the same molecule, the GI50 in the assay on RPMI-8226 was 17.3 µM (inactive); with NCI/ADR-RES, 14.9 µM (inactive); in the assay on RXF 393, 3.14 µM (inactive); in the assay with SF-539, 9.18 µM (inactive); in the assay with SK-OV-3 it was 3.91 µM (inactive); with UO-31, 10.6 µM (inactive).

As for `[O-][S+](c1ccccc1)c1ccc(/N=N/O)nc1` (centres undefined), the GI50 with CAKI-1, in the assay on SNB-19, with Hs-578T, in the assay on BT-549, with DU-145 and with KM12 was > 100 µM (inactive) throughout. Besides, the GI50 in the assay with UACC-62 is > 100 µM (inactive); in the assay with SNB-75, > 100 µM (inactive); in the assay with K562, > 100 µM (inactive); in the assay with 786-0, > 100 µM (inactive); in the assay with NCI/ADR-RES it was > 100 µM (inactive); in the assay on RXF 393 it was 0.213 µM (active). Besides, the GI50 in the assay with SF-539, in the assay with SK-OV-3 and in the assay on UO-31 was > 100 µM (inactive) each time.

For `CC1=NNC(=O)C1C1CC(c2c[nH]c3ccccc23)=NN=C1Cl` (centres undefined), the GI50 is 33.3 µM (inactive) with LOX IMVI; > 100 µM (inactive) in the assay with CAKI-1; 40.9 µM (inactive) in the assay on SNB-19; 61.8 µM (inactive) in the assay on Hs-578T; 37 µM (inactive) in the assay on BT-549; > 100 µM (inactive) in the assay on DU-145. The GI50 in the assay with KM12 was 21.9 µM (inactive); in the assay on UACC-62, 85.7 µM (inactive); in the assay with SNB-75, 75 µM (inactive); with K562, 28.4 µM (inactive); in the assay on SK-MEL-2, > 100 µM (inactive); in the assay with 786-0, 49.9 µM (inactive). In addition, the GI50 with RPMI-8226 was 23.7 µM (inactive); in the assay with NCI/ADR-RES, > 100 µM (inactive); with RXF 393 it was 45.8 µM (inactive); in the assay on SF-539 it was 55.6 µM (inactive); in the assay on SK-OV-3, > 100 µM (inactive); in the assay with UO-31 it was 31.2 µM (inactive).

In the case of `O=[N+]([O-])c1ccc(-c2nc(/C=N/N3CCCCC3)cs2)o1`, the GI50 in the assay with CAKI-1 is > 100 µM (inactive); in the assay with SNB-19 it was > 100 µM (inactive); with Hs-578T it was > 100 µM (inactive); in the assay with BT-549, 92.5 µM (inactive); in the assay on DU-145 it was > 100 µM (inactive); in the assay on KM12, 33.9 µM (inactive). Moreover, the GI50 is 31.9 µM (inactive) in the assay with UACC-62; > 100 µM (inactive) in the assay on SNB-75; 57.5 µM (inactive) with K562; > 100 µM (inactive) with SK-MEL-2; > 100 µM (inactive) with 786-0; 19.1 µM (inactive) with RPMI-8226. For the same molecule, the GI50 was 74.8 µM (inactive) in the assay with NCI/ADR-RES; > 100 µM (inactive) in the assay on RXF 393; > 100 µM (inactive) in the assay on SF-539; > 100 µM (inactive) in the assay with SK-OV-3; > 100 µM (inactive) in the assay with UO-31.
